Assay results as given in ChEMBL document CHEMBL5625239, “Synthesis of 1,3,5-triphenyl-1,2,4-triazole derivatives and their neuroprotection by anti-oxidative stress and anti-inflammation and protecting BBB” (Eur J Med Chem, 2023).
Active and inactive are the calls of the source. No cut-off for these calls is given here.

How the values were obtained:
Rattus norvegicus [1] = experiment: Neuroprotective activity against middle cerebral artery occlusion induced ischemia stroke Sprague-Dawley rat model assessed as cerebral infarction area at 5 mg/kg, ip measured after 24 hrs by TTC staining based imaging analysis (reference value: 20.08 +/- 5.70); format: functional
PC-12 [2] = experiment: Protection against SNP-induced cell damage in rat PC-12 cells assessed as inhibition of ROS accumulation by measuring reduction in green fluorescence intensity at 10 uM preincubated with compound for 2 hrs followed by SNP addition and measured after 24 hrs by laser confocal microscopic analysis; format: functional, cell-based; conditions: time 26.0 hrs
[3] = biological target: T1, Prostaglandin G/H synthase 1 (Ovis aries, UniProt P05979); experiment: Inhibition of ovine COX-1 using arachidonic acid as substrate preincubated with compound for 5 mins followed by substrate addition and measured after 2 mins by enzyme immunoassay
T1 sequence (P05979 whole entry): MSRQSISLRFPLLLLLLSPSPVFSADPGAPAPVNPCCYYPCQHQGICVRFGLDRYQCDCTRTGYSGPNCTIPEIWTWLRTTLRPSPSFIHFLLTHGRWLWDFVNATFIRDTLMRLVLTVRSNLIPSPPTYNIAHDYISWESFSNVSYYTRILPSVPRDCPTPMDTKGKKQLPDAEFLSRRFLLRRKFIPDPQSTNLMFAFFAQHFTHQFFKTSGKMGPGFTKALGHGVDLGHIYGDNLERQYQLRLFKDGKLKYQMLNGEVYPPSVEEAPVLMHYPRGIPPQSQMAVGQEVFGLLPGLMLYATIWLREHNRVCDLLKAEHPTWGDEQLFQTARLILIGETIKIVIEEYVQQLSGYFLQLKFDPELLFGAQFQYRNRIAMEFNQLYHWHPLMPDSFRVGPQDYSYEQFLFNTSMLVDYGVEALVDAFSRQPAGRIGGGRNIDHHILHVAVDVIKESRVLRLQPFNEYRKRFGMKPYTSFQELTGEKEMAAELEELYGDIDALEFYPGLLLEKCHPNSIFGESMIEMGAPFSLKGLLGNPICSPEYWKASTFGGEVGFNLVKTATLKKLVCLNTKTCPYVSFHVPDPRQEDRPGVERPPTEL

RAW264.7 [4] = experiment: Cytotoxicity against mouse RAW264.7 cells assessed as reduction in cell viability at 5 uM incubated for 24 hrs by MTT assay; format: toxicity, cell-based; conditions: raw264.7, 24 h
RAW264.7 [5] = experiment: Anti-inflammatory activity in mouse RAW264.7 cells assessed as inhibition of LPS-induced NO production preincubated with compound for 1 hrs followed by LPS stimulation and measured after 24 hrs; format: functional, cell-based; conditions: time 25.0 hrs
RAW264.7 [6] = experiment: Anti-inflammatory activity in LPS-induced mouse RAW264.7 cells assessed as reduction in PGE2 level preincubated with compound for 1 hrs followed by LPS stimulation and measured after 24 hrs by ELISA; format: functional, cell-based; conditions: time 25.0 hrs
PC-12 [7] = experiment: Protection against SNP-induced cell damage in rat PC-12 cells at 10 uM pretreated with compound for 2 hrs followed by SNP addition and measured after 24 hrs by MTT assay; format: functional, cell-based; conditions: time 26.0 hrs
PC-12 [8] = experiment: Neuroprotective activity against SNP-induced cell damage in rat PC-12 cells pretreated with compound for 2 hrs followed by SNP addition and measured after 24 hrs by MTT assay; format: functional, cell-based; conditions: dose 2.5-100 µM, time 26.0 hrs
Rattus norvegicus [9] = experiment: Neuroprotective activity against middle cerebral artery occlusion induced ischemia stroke Sprague-Dawley rat model assessed as neurological severity score at 5 mg/kg, ip measured after 24 hrs by behavioral test (reference value: 10.50 +/- 2.72); format: functional
Rattus norvegicus [10] = experiment: Neuroprotective activity against middle cerebral artery occlusion induced ischemia stroke Sprague-Dawley rat model assessed as neurological severity score at 10 mg/kg, ip measured after 24 hrs by behavioral test (reference value: 10.50 +/- 2.72); format: functional
Rattus norvegicus [11] = experiment: Neuroprotective activity against middle cerebral artery occlusion induced ischemia stroke Sprague-Dawley rat model assessed as neurological severity score at 20 mg/kg, ip measured after 24 hrs by behavioral test (reference value: 10.50 +/- 2.72); format: functional
Rattus norvegicus [12] = experiment: Neuroprotective activity against middle cerebral artery occlusion induced ischemia stroke Sprague-Dawley rat model assessed as cerebral infarction area at 10 mg/kg, ip measured after 24 hrs by TTC staining based imaging analysis (reference value: 20.08 +/- 5.70); format: functional
Rattus norvegicus [13] = experiment: Neuroprotective activity against middle cerebral artery occlusion induced ischemia stroke Sprague-Dawley rat model assessed as cerebral infarction area at 20 mg/kg, ip measured after 24 hrs by TTC staining based imaging analysis (reference value: 20.08 +/- 5.70); format: functional
Rattus norvegicus [14] = experiment: Neuroprotective activity against middle cerebral artery occlusion induced ischemia stroke Sprague-Dawley rat model assessed as reduction in MDA level in serum at 20 mg/kg, ip measured after 24 hrs by ELISA; format: functional, organism-based
Rattus norvegicus [15] = experiment: Neuroprotective activity against middle cerebral artery occlusion induced ischemia stroke Sprague-Dawley rat model assessed as reduction in IL-1beta level in serum at 20 mg/kg, ip measured after 24 hrs by ELISA; format: functional, organism-based
Rattus norvegicus [16] = experiment: Neuroprotective activity against middle cerebral artery occlusion induced ischemia stroke Sprague-Dawley rat model assessed as reduction in TNF-alpha level in serum at 20 mg/kg, ip measured after 24 hrs by ELISA; format: functional, organism-based
Rattus norvegicus [17] = experiment: Neuroprotective activity against middle cerebral artery occlusion induced ischemia stroke Sprague-Dawley rat model assessed as increase in SOD level in serum at 20 mg/kg, ip measured after 24 hrs by ELISA; format: functional, organism-based
Rattus norvegicus [18] = experiment: Neuroprotective activity against middle cerebral artery occlusion induced ischemia stroke Sprague-Dawley rat model assessed as reduction in glycocalyx degradation by measuring decrease in serum hyaluronic acid level administered intraperitoneally and measured after 24 hrs by ELISA; format: functional, organism-based; conditions: dose 5-20 mg/kg, route ip
Rattus norvegicus [19] = experiment: Neuroprotective activity against middle cerebral artery occlusion induced ischemia stroke Sprague-Dawley rat model assessed as reduction in glycocalyx degradation by measuring decrease in serum syndecan-1 level at 5 to 20 mg/kg, ip measured after 24 hrs by ELISA; format: functional, organism-based; conditions: dose 5-20 mg/kg
Rattus norvegicus [20] = experiment: Neuroprotective activity against middle cerebral artery occlusion induced ischemia stroke Sprague-Dawley rat model assessed as reduction in glycocalyx degradation by measuring decrease in serum heparan sulfate level at 5 to 20 mg/kg, ip measured after 24 hrs by ELISA; format: functional, organism-based; conditions: dose 5-20 mg/kg
Rattus norvegicus [21] = experiment: Neuroprotective activity against middle cerebral artery occlusion induced ischemia stroke Sprague-Dawley rat model assessed as reduction in serum MMP-9 level administered intraperitoneally and measured after 24 hrs by ELISA; format: functional, organism-based; conditions: dose 5-20 mg/kg, route ip
[22] = biological target: Kelch-like ECH-associated protein 1 (Homo sapiens, UniProt Q14145); experiment: Binding affinity to CM5 chip immobilized KEAP1 Kelch domain (unknown origin) assessed as dissociation equilibrium constant by SPR analysis
RAW264.7 [23] = experiment: Anti-inflammatory activity in LPS-induced mouse RAW264.7 cells assessed as decrease in COX-2 expression preincubated with compound for 1 hrs followed by LPS stimulation and measured after 24 hrs by Western blot analysis; format: functional, cell-based; conditions: dose 1.25-5 µM, time 25.0 hrs
RAW264.7 [24] = experiment: Anti-inflammatory activity in LPS-induced mouse RAW264.7 cells assessed as decrease in iNOS expression preincubated with compound for 1 hrs followed by LPS stimulation and measured after 24 hrs by Western blot analysis; format: functional, cell-based; conditions: dose 1.25-5 µM, time 25.0 hrs
PC-12 [25] = experiment: Protection against SNP-induced cell damage in rat PC-12 cells assessed as reduction in apoptosis by measuring decrease in bright-blue nuclei at 10 uM preincubated with compound for 2 hrs followed by SNP addition and measured after 24 hrs by confocal laser microscopic analysis; format: functional, cell-based; conditions: time 26.0 hrs
PC-12 [26] = experiment: Protection against SNP-induced cell damage in rat PC-12 cells assessed as reduction in apoptosis by measuring decrease in cell count at 10 uM preincubated with compound for 2 hrs followed by SNP addition and measured after 24 hrs by confocal laser microscopic analysis; format: functional, cell-based; conditions: time 26.0 hrs
PC-12 [27] = experiment: Protection against SNP-induced cell damage in rat PC-12 cells assessed as reduction in apoptosis by measuring normal nuclear staining at 10 uM preincubated with compound for 2 hrs followed by SNP addition and measured after 24 hrs by confocal laser microscopic analysis; format: functional, cell-based; conditions: time 26.0 hrs
[28] = biological target: Voltage-gated inwardly rectifying potassium channel KCNH2 (Homo sapiens, UniProt Q12809); experiment: Inhibition of hERG in HEK293 cells by whole-cell patch clamp electrophysiological recording; format: toxicity, cell-based
[29] = Acute toxicity in mouse assessed as mortality at 1000 mg/kg, ip; format: organism-based; conditions: in vivo
[30] = Acute toxicity in mouse assessed as effect on behavior at 1000 mg/kg, ip; format: organism-based; conditions: in vivo
[31] = Acute toxicity in ip dosed mouse assessed as lethal dose; format: organism-based; conditions: in vivo

Sequence of Kelch-like ECH-associated protein 1 (Q14145 whole entry, the tested form may be a part): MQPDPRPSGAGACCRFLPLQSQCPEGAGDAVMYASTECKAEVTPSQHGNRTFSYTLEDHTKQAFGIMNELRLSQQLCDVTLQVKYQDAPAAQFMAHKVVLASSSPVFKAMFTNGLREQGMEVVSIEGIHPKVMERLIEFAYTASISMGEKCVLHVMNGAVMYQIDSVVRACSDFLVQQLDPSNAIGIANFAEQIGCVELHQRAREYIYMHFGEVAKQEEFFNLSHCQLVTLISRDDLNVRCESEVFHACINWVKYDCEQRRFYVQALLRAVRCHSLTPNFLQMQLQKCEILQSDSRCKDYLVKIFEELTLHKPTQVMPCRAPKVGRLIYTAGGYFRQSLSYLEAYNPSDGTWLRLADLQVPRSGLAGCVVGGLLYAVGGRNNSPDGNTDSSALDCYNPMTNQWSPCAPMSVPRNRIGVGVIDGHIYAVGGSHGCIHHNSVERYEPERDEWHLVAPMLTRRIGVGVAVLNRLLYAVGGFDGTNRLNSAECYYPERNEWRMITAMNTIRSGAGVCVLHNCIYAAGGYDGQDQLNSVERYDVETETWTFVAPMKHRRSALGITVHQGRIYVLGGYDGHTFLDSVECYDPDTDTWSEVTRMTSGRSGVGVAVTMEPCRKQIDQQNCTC
Sequence of Voltage-gated inwardly rectifying potassium channel KCNH2 (Q12809 whole entry): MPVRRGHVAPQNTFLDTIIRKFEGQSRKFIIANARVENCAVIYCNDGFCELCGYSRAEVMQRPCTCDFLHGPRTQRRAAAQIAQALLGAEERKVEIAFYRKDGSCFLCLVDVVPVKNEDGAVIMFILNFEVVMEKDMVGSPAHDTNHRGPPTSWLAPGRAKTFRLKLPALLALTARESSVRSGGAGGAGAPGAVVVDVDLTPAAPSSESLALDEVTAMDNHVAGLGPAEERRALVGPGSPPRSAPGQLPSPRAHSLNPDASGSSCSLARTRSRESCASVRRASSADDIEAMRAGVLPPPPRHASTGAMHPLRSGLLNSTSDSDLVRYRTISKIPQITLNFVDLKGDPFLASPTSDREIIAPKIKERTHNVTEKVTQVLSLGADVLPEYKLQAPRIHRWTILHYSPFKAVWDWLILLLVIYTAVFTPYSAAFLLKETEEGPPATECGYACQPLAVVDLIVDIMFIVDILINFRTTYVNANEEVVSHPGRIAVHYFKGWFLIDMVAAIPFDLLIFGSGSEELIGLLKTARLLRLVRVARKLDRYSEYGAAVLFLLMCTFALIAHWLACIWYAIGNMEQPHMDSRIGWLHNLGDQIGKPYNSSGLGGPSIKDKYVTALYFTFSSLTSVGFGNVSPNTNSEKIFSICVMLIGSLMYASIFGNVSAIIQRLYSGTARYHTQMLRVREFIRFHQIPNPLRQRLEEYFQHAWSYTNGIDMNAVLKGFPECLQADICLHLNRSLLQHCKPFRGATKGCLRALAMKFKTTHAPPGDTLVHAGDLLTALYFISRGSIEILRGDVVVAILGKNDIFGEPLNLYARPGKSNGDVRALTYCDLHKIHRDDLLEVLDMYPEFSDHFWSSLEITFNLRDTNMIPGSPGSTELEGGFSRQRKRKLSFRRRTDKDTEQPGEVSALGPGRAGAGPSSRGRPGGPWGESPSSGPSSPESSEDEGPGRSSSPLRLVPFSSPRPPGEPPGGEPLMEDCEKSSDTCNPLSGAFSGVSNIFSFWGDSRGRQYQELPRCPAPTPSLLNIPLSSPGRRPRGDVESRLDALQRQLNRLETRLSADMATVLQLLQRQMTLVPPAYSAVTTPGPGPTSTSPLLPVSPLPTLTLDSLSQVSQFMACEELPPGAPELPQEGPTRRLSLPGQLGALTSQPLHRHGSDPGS

For `NS(=O)(=O)c1ccc(-n2nc(-c3ccc(C(F)(F)F)cc3O)nc2-c2ccccc2O)cc1`, the Activity (Rattus norvegicus [1]) was 18.52, the Activity (PC-12 [2]) was “Active” and the IC50 [3] was 86.5 µM. The Activity (RAW264.7 [4]) was “Non-Toxic”, the Activity (RAW264.7 [5]) was “Active” and the Activity (RAW264.7 [6]) was “Active”. For the same compound, the Activity (PC-12 [7]) was “Active”, the Activity (PC-12 [8]) was “Dose-Dependent Effect” and the Activity (Rattus norvegicus [9]) was 9.2. The Activity (Rattus norvegicus [10]) was 9.25, the Activity (Rattus norvegicus [11]) was 7.4 and the Activity (Rattus norvegicus [12]) was 17.43. The Activity (Rattus norvegicus [13]) was 15.61, the Activity (Rattus norvegicus [14]) was “Active” and the Activity (Rattus norvegicus [15]) was “Active”. The Activity (Rattus norvegicus [16]) was “Active”, the Activity (Rattus norvegicus [17]) was “Active” and the Activity (Rattus norvegicus [18]) was “Dose-Dependent Effect”. The Activity (Rattus norvegicus [19]) was “Active”, the Activity (Rattus norvegicus [20]) was “Active” and the Activity (Rattus norvegicus [21]) was “Dose-Dependent Effect”. For the same compound, the Kd [22] was 16.5 µM, the Activity (RAW264.7 [23]) was “Dose-Dependent Effect” and the Activity (RAW264.7 [24]) was “Dose-Dependent Effect”. The Activity (PC-12 [25]) was “Active”, the Activity (PC-12 [26]) was “Active” and the Activity (PC-12 [27]) was “Active”. For the same compound, the IC50 [28] was > 30 µM, the Activity [29] was “Non-Toxic” and the Activity [30] was “Non-Toxic”. For the same compound, the LD50 [31] was > 1000 mg/kg.
